What is called IC50 is the midpoint of a concentration-inhibition curve.

In one experiment the test system is HBc CTD. Description: Mobility of unassembled HBc on agarose gel (CTD phosphorylation state) and HBc protein levels in RRL. Format: biochemical, Hepatitis B virus. The conditions noted are these: for mobility upshift on the agarose gel of WT HBc: kinase inhibitors added at beginning of translation, ERKI 310 μM, Bisindo 40 μM; for mobility upshift on the agarose gel of WT HBc / C149 mobility on the agarose gel: Rosc 250 μM; for C149 mobility on the agarose gel: kinase inhibitors. How it is done:
(§1) The TNT Coupled Rabbit Reticulocyte Lysate (RRL) in vitro translation system (Promega) was used to express the HBc proteins as recommended by the manufacturer's protocol. In vitro translated proteins were labeled by ^35S methionine. The translation reaction mix contained ca. 125 mM KCI and 2.5 mM Mg^++ (Promega).
(§2) Unless specifically indicated otherwise, the general assembly reactions included 1 to 3 microL of translation products per 10 microL final reaction volume in 1× buffer 3 (100 mM NaCl, 50 mM Tris-HCl, 10 mM MgCl2, 1 mM DTT, pH 7.9; New England Biolabs) supplemented with 1×EDTA-free protease inhibitor cocktail (Roche) and 0.8 U/μl RNasin Plus RNase Inhibitor (Promega). The reactions were incubated for 16 hrs at 37° C. unless indicated otherwise. Where indicated, additional enzymatic manipulations were performed using the same reaction buffer as above. (1) Exogenous phosphatase treatment. One unit of calf intestinal alkaline phosphatase (CIAP; New England Biolabs) per microliter of the final reaction volume was added at the end of translation and incubated for 16 hours at 37° C. (2) Kinase inhibitor treatment. […] The final concentration of DMSO in all reactions was 1% (i.e., kinase inhibitor stocks were always diluted 100-fold into the translation or assembly reactions). (3) Phosphatase inhibitor treatment. A cocktail of non-specific phosphatase inhibitors (10 mM NaF, 50 mM β-glycerophosphate, 10 mM sodium pyrophosphate, and 2 mM sodium orthovanadate; all final concentrations) were added at the end of the translation and incubated for 16 hours at 37° C. Alternatively, okadaic acid (Sigma) was added at the end of the translation at the indicated concentrations and incubated for 16 hours at 37° C. (4) RNase A digestion. RNase A (100 μg/ml final concentration) was added at the end of the translation and incubated for 16 hour at 37° C., or added at the end of the 16 hr assembly reaction and incubated for another one hr.
(§3) ^35S-labeled translation reactions were resolved by 1% agarose gel electrophoresis (100 V for ˜3 hours), using 6×DNA Loading Buffer Blue (New England Biolabs). The gels were then soaked in 10×SSC (1.5 M NaCl, 150 mM sodium citrate, pH 7.0) for approximately 30 minutes and transferred overnight to nitrocellulose membrane by capillary transfer. The next day the membranes were UV cross-linked and dried in a vacuum oven for 2 hours. The translation products were analyzed by autoradiography and Western blotting with the rabbit polyclonal anti-HBcAg (Dako) or mouse monoclonal anti-woodchuck hepatitis virus core protein (Ning X, et al. (2011) PLoS pathogens 7: e1002255).
^35S-labeled translation reactions were resolved by SDS-PAGE on 15% or 12.5% polyacrylamide gels. The resolved proteins were transferred to PVDF membrane and detected by autoradiography or Western blotting as above.

For experiment [1], the system named is HBc (HBV capsid assembly). As to the kind of experiment: In vitro capsid assembly in RRL, agarose gel electrophoresis. Format: biochemical, Hepatitis B virus. The procedure: as §1, §2, §3
Another experiment relates to PP1. Conditions: cellular serine/threonine phosphatase PP1; Cohen P, et al. (1990); cited from earlier work.
The next experiment has as its system PP2A. The conditions noted are these: cellular serine/threonine phosphatase PP2A; Cohen P, et al. (1990); cited from earlier work.
The mark [2] stands for this setting: kinase inhibitors, Rosc 250 μM, CDK2I 250 μM.
Where [3] appears, read: phosphatase inhibitor added during assembly incubation, OA 50 nM.
Setting [4] is: CIAP treatment following translation.
Where [5] appears, read: RNase pretreatment before assembly.
Setting [6] is: RNase treatment before assembly.

As to `Nc1[nH]nc2nnc(-c3c(-c4ccccc4)nn4ccccc34)cc12` [ERK inhibitor, Erk inhibitor II], the “mobility upshift on the agarose gel of WT HBc” value (shortened to “mobility upshift … of WT HBc”) with HBc CTD (CDK2I 250 μM) is on record as “no effect”.

With `COc1ccc(CNc2nc(N(CCO)CCO)nc3c2ncn3C(C)C)cc1` [CDK2 inhibitor, CDK2 inhibitor III], the 7E assembly result in experiment [1] (setting [2]) is listed as “little effect”. In addition, the “levels of the WT and mutant HBc proteins” value in the experiment with HBc CTD (SDS-PAGE, CDK2I 250 μM) is given as “increase”. In addition, in the experiment with HBc CTD (CDK2I 250 μM), the “mobility upshift … of WT HBc” value is given as “induced a mobility upshift” and the “C149 mobility on the agarose gel” value is recorded as “no effect”.

For the molecule `C=C1[C@@H](O)[C@@H]2O[C@]3(CC[C@H](/C=C/[C@@H](C)[C@@H]4CC(C)=C[C@@]5(O[C@H](C[C@@](C)(O)C(=O)O)CC[C@H]5O)O4)O3)CC[C@H]2O[C@@H]1[C@@H](O)C[C@H](C)[C@H]1O[C@@]2(CCCCO2)CC[C@H]1C` [OA, okadaic acid], in experiment [1] (setting [3]), the “capsid assembly by 3A” value is “not inhibited” and the “capsid assembly by 3E” value was “prevented assembly”. In the experiment with HBc CTD (phosphatase inhibitor added during overnight 37° C. incubation following translation, OA 50 nM), the “mobility upshift of the WT HBc on the agarose gel” value is recorded as “completely blocked”. Besides, in the experiment with HBc CTD (titration of OA, overnight incubation at 37° C.), the “OA concentration that could significantly affect the dephosphorylation-induced mobility upshift of the WT HBc” value is recorded as 4 nM. Further, in the experiment with PP1, the half-inhibitory concentration (IC50) is 15 to 20 nM. The IC50 in the experiment with PP2A is around 0.1 nM.

`CC[C@H](CO)Nc1nc(NCc2ccccc2)c2ncn(C(C)C)c2n1` [roscovitine, Roscovitine]: in experiment [1] (setting [2]), the 7E assembly entry is listed as “little effect”. In the experiment with HBc CTD (CDK2I 250 μM), the “C149 mobility on the agarose gel” value is “no effect”.

For `CN(C)CCCn1cc(C2=C(c3c[nH]c4ccccc34)C(=O)NC2=O)c2ccccc21` [PKC inhibitor, Bisindolymaleimide I], the “mobility upshift … of WT HBc” value with HBc CTD (CDK2I 250 μM) is reported as “no effect”.

B1: CIAP: calf intestinal alkaline phosphatase, exogenous phosphatase (New England Biolabs) (protein, UniProt P19111 20-506, looked up)
Intestinal-type alkaline …: LVPVEEEDPAFWNRQAAQALDVAKKLQPIQTAAKNVILFLGDGMGVPTVTATRILKGQMNGKLGPETPLAMDQFPYVALSKTYNVDRQVPDSAGTATAYLCGVKGNYRTIGVSAAARYNQCKTTRGNEVTSVMNRAKKAGKSVGVVTTTRVQHASPAGAYAHTVNRNWYSDADLPADAQMNGCQDIAAQLVNNMDIDVILGGGRKYMFPVGTPDPEYPDDASVNGVRKRKQNLVQAWQAKHQGAQYVWNRTALLQAADDSSVTHLMGLFEPADMKYNVQQDHTKDPTLQEMTEVALRVVSRNPRGFYLFVEGGRIDHGHHDDKAYMALTEAGMFDNAIAKANELTSELDTLILVTADHSHVFSFGGYTLRGTSIFGLAPSKALDSKSYTSILYGNGPGYALGGGSRPDVNDSTSEDPSYQQQAAVPQASETHGGEDVAVFARGPQAHLVHGVEEETFVAHIMAFAGCVEPYTDCNLPAPTTATSIPD
As for B1, the “assembly of the WT HBc” value in experiment [1] (CIAP 1 unit per microliter, 16 hours at 37° C. following translation) was “induced the assembly”. In addition, in experiment [1] (setting [4]), the “assembly of the 3A mutant” value is “did not have a significant effect” and the “assembly of the 3E mutant” value is “did not have a significant effect”. For the same molecule, the “mobility of the C149 truncation mutant” value with HBc CTD (setting [4]) was “did not affect the mobility”.

B2: RNase: RNase A, 100 μg/ml final concentration (protein, UniProt P61823 27-150, looked up)
Ribonuclease pancreatic: KETAAAKFERQHMDSSTSAASSSNYCNQMMKSRNLTKDRCKPVNTFVHESLADVQAVCSQKNVACKNGQTNCYQSYSTMSITDCRETGSSKYPNCAYKTTQANKHIIVACEGNPYVPVHFDASV
With B2, in experiment [1] (setting [5]), the “assembly of the 3A mutant” value is listed as “no effect” and the “assembly of the 3E mutant” value is reported as “prevented assembly”. For the same molecule, the “WT HBc capsid assembly” value in experiment [1] (RNase treatment before CIAP treatment, RNase A 100 μg/ml) was “prevented capsid assembly”. For the same molecule, in experiment [1] (setting [6]), the 7A assembly entry is “abolished” and the 7E assembly entry was “no effect”. In addition, the “assembled capsids (WT and mutants)” value in experiment [1] (RNase treatment following the completion of capsid assembly) is “little effect”.

The values above are taken from US10196701B2, “Hepatitis B virus capsid assembly” (The Penn State Research Foundation, priority 2015, dated 2019).
